The values below come from US20250313553A1, “ANNULATED 2-AMINO-3-CYANO THIOPHENES AND DERIVATIVES FOR THE TREATMENT OF CANCER” (Boehringer Ingelheim Int'l GmbH Corp., priority 2021, published 2025).

SMILES strings stand for the structures.

For orientation: IC50 means the concentration at which inhibition is half-maximal.

One experiment concerns the target T1, KRAS (WT) and SOS1 (Homo sapiens, UniProt P01116, C118S).
T1 construct: KRAS (WT) 1-169, N-terminal 6His-tag for purification; 6His (N, cleaved yes); TEV cleavage site
The experiment is described as follows: KRAS::SOS1 AlphaScreen binding assay, KRAS WT. How it is done: Low IC50 values in this assay setting are indicative of strong inhibition of protein-protein interaction between SOS1 and KRAS:
These assays measure the inhibitory effect of compounds on KRAS mutant protein-protein interactions using the Alpha Screen technology by Perkin Elmer.
For the chosen highest assay concentration of 100 μM, 150 nL of compound solution are transferred from a 10 mM DMSO compound stock solution. A series of eleven fivefold dilutions per compound are transferred to the assay plate, compound dilutions are tested in duplicates. DMSO are added as backfill to a total volume of 150 nL.
The assays run on a fully automated robotic system in a darkened room below 100 Lux. To 150 nl of compound dilution 10 μl of a mix including KRAS mutant protein, SOS1 (final assay concentrations see above) and GDP nucleotide (Sigma G7127; final assay concentration 10 μM) in assay buffer (1×PBS, 0.1% BSA, 0.05% Tween 20) are added into columns 1-24. […]
Plates are kept at room temperature in a darkened incubator. After an additional 60 minutes incubation time the signal is measured in a PerkinElmer Envision HTS Multilabel Reader using the AlphaScreen specs from PerkinElmer.
IC50 values are calculated and analyzed with Boehringer Ingelheim's MEGALAB IC50 application using a 4 parametric logistic model.
On the technique in general: Alpha assays give light when donor and acceptor beads are brought close together.

The test system of another experiment is NCI-H358 cells. The experiment is described as follows: NCI-H358 CTG proliferation assay (120 h), assay 2. Type of experiment: cell-based. The following applies: Homo sapiens, 384-well, 200 cells per well. As for the experimental part: NCI-H358 cells (ATCC No. CRL-5807) are dispensed into white bottom opaque 96 well plates (Perkin Elmer cat no. 5680) at a density of 2000 cells per well in 100 μL RPMI-1640 ATCC-Formulation (Gibco #A10491)+10% FCS (fetal calf serum) (assay 1) or into black 384-well plates, flat and clear bottom (Greiner, PNr. 781091) at a density of 200 cells per well in 60 μl RPMI-1640 ATCC-Formulation (Gibco #A10491)+10% FCS (fetal calf serum) (assay 2). […] Compounds (10 mM stock in DMSO) are added at logarithmic dose series using the HP Digital Dispenser D300 (Tecan) (assay 1) or the ECHO acoustic liquid handler system (Beckman Coulter) (assay 2), normalizing for added DMSO and including DMSO controls. For the T0 time point measurement, untreated cells are analyzed at the time of compound addition. Plates are incubated for 120 h, and cell viability is measured using CellTiter-Glo luminescent cell viability reagent (Promega product code G7570). Viability (stated as percent of control) is defined as relative luminescence units RLU of each well divided by the RLU of cells in DMSO controls. IC50 values are determined from viability measurements by non-linear regression using a four-parameter model.

A further experiment concerns AsPC-1 cells. The experiment is described as follows: AsPC-1 CTG proliferation assay (120 h). Type of experiment: cell-based. As to conditions: Homo sapiens, ASPC1, pancreatic cancer, G12D. As for the experimental part: The CTG assay is designed to measure quantitatively the proliferation of AsPC-1 cells (ATCC […]), using the CellTiter Glow Assay Kit (Promega G7571). Cells are grown in RPMI medium (ATCC) supplemented with Fetal Calf Serum (Life Technologies, Gibco BRL, Cat. No. 10270-106). On “day 0” 2000 AsPC-1 cells are seeded in 60 μL RPMI ATCC+10% FCS+Penstrep in a 384-well plate, flat and clear bottom (Greiner, PNr. 781091). Cells are then incubated in the plates at 37° C. in a CO2 incubator overnight. On day 1, compounds (10 mM stock in DMSO) are added with the ECHO acoustic liquid handler system (Beckman Coulter), including DMSO controls. Plates are incubated for 120 h, and cell viability is measured using CellTiter-Glo luminescent cell viability reagent (Promega product code G7570). Viability (stated as percent of control) is defined as relative luminescence units RLU of each well divided by the RLU of cells in DMSO controls. IC50 values are determined from viability measurements by non-linear regression using a four-parameter model.

The subject of the next experiment is SAS cells. The experiment is described as follows: SAS CTG proliferation assay (120 h). The following applies: HNSCC, wt amplified. Type of experiment: cell-based. How it is done:
(§1) SAS cells (JCRB0260) are dispensed into 384-well plates, flat and clear bottom (Greiner, PNr. 781091) at a density of 300 cells per well in 60 μL DMEM:F12 (Gibco 31330-038)+10% Fetal Calf Serum (HyClone, PNr.: SH30084.03) and incubated at 37° C. in a CO2 incubator overnight. The next day, compounds (10 mM stock in DMSO) are added with the ECHO acoustic liquid handler system (Beckman Coulter), including DMSO controls. Plates are incubated for 120 h, and cell viability is measured using CellTiter-Glo luminescent cell viability reagent (Promega product code G7570). Viability (stated as percent of control) is defined as relative luminescence units RLU of each well divided by the RLU of cells in DMSO controls. IC50 values are determined from viability measurements by non-linear regression using a four-parameter model.

Another experiment concerns LOVO cells. The experiment is described as follows: LOVO CTG proliferation assay (120 h). The experiment is classed as cell-based. As to conditions: Homo sapiens, CRC, G13D. How it is done:
as §1, with “LOVO cells (ATCC” for “SAS cells (JCRB0260)”, “LOVO cells (ATCC CCL-229) are dispensed” for “SAS cells (JCRB0260) are dispensed”, “density of 1000 cells per” for “density of 300 cells per”, “60 μL DMEM (Sigma D6429)+10% Fetal Calf” for “60 μL DMEM:F12 (Gibco 31330-038)+10% Fetal Calf”

T1 sequence (P01116 1-169 isoform P01116-2 C118S): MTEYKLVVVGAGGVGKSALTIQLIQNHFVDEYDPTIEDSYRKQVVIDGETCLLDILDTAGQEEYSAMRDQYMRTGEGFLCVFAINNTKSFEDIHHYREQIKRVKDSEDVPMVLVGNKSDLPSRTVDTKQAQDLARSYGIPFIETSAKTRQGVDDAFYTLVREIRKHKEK

As for `C[C@H]1CN(C)CCN1c1cccc(-c2noc([C@@]3(C)CCCc4sc(N)c(C#N)c43)n2)n1` [Example V-1], the half-inhibitory concentration (IC50) was found to be 125 nM at KRAS (WT) and SOS1; 937 nM with NCI-H358 cells; 7240 nM in the experiment on AsPC-1 cells; 8020 nM in the experiment on SAS cells; 8470 nM in the experiment on LOVO cells.

As to `C[C@H](Oc1cccc(-c2noc([C@@]3(C)CCCc4sc(N)c(C#N)c43)n2)n1)[C@@H]1CCCN1C` [Example V-8], the IC50 amounted to 28 nM at KRAS (WT) and SOS1; 230 nM in the experiment on NCI-H358 cells; 3950 nM with AsPC-1 cells; 3100 nM in the experiment with SAS cells; 1430 nM with LOVO cells.

`CC(C)N1CCCN(c2nccc(-c3noc([C@@]4(C)CCCc5sc(N)c(C#N)c54)n3)n2)[C@@H](C)C1` [Example V-9] returned an IC50 in the experiment with NCI-H358 cells of 1190 nM.

Turning to `C[C@H](Oc1ccnc(-c2noc([C@@]3(C)CCCc4sc(N)c(C#N)c43)n2)n1)[C@@H]1CCCN1C` [Example V-11], the IC50 was found to be 244 nM with NCI-H358 cells, 3700 nM with AsPC-1 cells, 3330 nM in the experiment with SAS cells and 193 nM with LOVO cells.
